Assay results: the NIST ThermoML archive (doi:10.1016/j.jct.2008.09.018)

Assay: xn = mol fraction of the nth substance listed
Details: 101 kPa, Liquid; for speed of sound: Pulse-echo method; for viscosity: Capillary tube (Ostwald / Ubbelohde) method; for mass density: Vibrating tube method

CCCCCCCCCO [nonan-1-ol] + OCCO
Details | mass density [kg/m3] | speed of sound [m/s] | viscosity [mPa·s]
293.15 K, x2 = 0 | – | 1381.6 | –
293.15 K, x2 = 0.1002 | – | 1383.9 | –
293.15 K, x2 = 0.1979 | – | 1387.2 | –
293.15 K, x2 = 0.2964 | – | 1391.9 | –
293.15 K, x2 = 0.3641 | – | 1396.2 | –
293.15 K, x2 = 0.4533 | – | 1403.7 | –
293.15 K, x2 = 0.5432 | – | 1414.2 | –
293.15 K, x2 = 0.6441 | – | 1431.5 | –
293.15 K, x2 = 0.7517 | – | 1460.2 | –
293.15 K, x2 = 0.9308 | – | 1571.1 | –
298.15 K, x2 = 0 | 824.48 | 1364.4 | 9.494
298.15 K, x2 = 0.1002 | 833.41 | 1366.8 | 9.581
298.15 K, x2 = 0.1979 | 843.96 | 1370.3 | 10.01
298.15 K, x2 = 0.2964 | 856.32 | 1375.2 | 10.67
298.15 K, x2 = 0.3641 | 866.44 | 1379.8 | 11.26
298.15 K, x2 = 0.4533 | 881.71 | 1387.6 | 12.22
298.15 K, x2 = 0.5432 | 900.44 | 1398.4 | 13.41
298.15 K, x2 = 0.6441 | 926.38 | 1416.2 | 15.09
298.15 K, x2 = 0.701 | 944.22 | – | –
298.15 K, x2 = 0.7517 | 963.14 | 1445.4 | 17.32
298.15 K, x2 = 0.9308 | 1055.33 | 1558.5 | 19.28
303.15 K, x2 = 0 | 821.05 | 1347.4 | 7.994
303.15 K, x2 = 0.1002 | 830.02 | 1350 | 8.014
303.15 K, x2 = 0.1979 | 840.61 | 1353.6 | 8.359
303.15 K, x2 = 0.2964 | 852.92 | 1358.8 | 8.897
303.15 K, x2 = 0.3641 | 863 | 1363.5 | 9.37
303.15 K, x2 = 0.4533 | 878.3 | 1371.5 | 10.14
303.15 K, x2 = 0.5432 | 896.94 | 1382.7 | 11.09
303.15 K, x2 = 0.6441 | 922.82 | 1400.8 | 12.4
303.15 K, x2 = 0.701 | 940.61 | – | –
303.15 K, x2 = 0.7517 | 959.57 | 1430.7 | 14.12
303.15 K, x2 = 0.9308 | 1051.63 | 1545.7 | 15.47
308.15 K, x2 = 0 | 817.57 | 1330.5 | 6.713
308.15 K, x2 = 0.1002 | 826.58 | 1333.2 | 6.801
308.15 K, x2 = 0.1979 | 837.18 | 1337.1 | 7.044
308.15 K, x2 = 0.2964 | 849.41 | 1342.4 | 7.487
308.15 K, x2 = 0.3641 | 859.49 | 1347.3 | 7.872
308.15 K, x2 = 0.4533 | 874.74 | 1355.6 | 8.493
308.15 K, x2 = 0.5432 | 893.37 | 1367.1 | 9.257
308.15 K, x2 = 0.6441 | 919.23 | 1385.6 | 10.31
308.15 K, x2 = 0.701 | 937.01 | – | –
308.15 K, x2 = 0.7517 | 956 | 1416.1 | 11.66
308.15 K, x2 = 0.9308 | 1048.12 | 1532.9 | 12.67
313.15 K, x2 = 0 | 814.19 | 1313.6 | 5.657
313.15 K, x2 = 0.1002 | 823.15 | 1316.5 | 5.782
313.15 K, x2 = 0.1979 | 833.73 | 1320.6 | 5.984
313.15 K, x2 = 0.2964 | 845.93 | 1326.3 | 6.352
313.15 K, x2 = 0.3641 | 855.98 | 1331.3 | 6.667
313.15 K, x2 = 0.4533 | 871.22 | 1339.8 | 7.176
313.15 K, x2 = 0.5432 | 889.84 | 1351.6 | 7.796
313.15 K, x2 = 0.6441 | 915.68 | 1370.4 | 8.65
313.15 K, x2 = 0.701 | 933.39 | – | –
313.15 K, x2 = 0.7517 | 952.37 | 1401.6 | 9.722
313.15 K, x2 = 0.9308 | 1044.52 | 1520.3 | 10.47
